Measured values: patent US6369083B1, “2-methoxyimino-2 (pyrinyloxymethyl) phenyl acetamides with polyether derivatives on the pyridine ring” (Dow AgroSciences LLC, priority 1998, dated 2002)

Key:
Format in all cases: in vivo
Plasmopara viticola = experiment: Downy Mildew of Grape (PLASVI), 96 hour protectant; settings: grape vines (cultivar Carignane), sprayed at 100 ppm, inoculated after 96 hours (protectant)
Experimental: Compound Formulation: […] Final treatment volumes were obtained by adding nine volumes 0.05kOO aqueous Tween-20 or Triton X-100, depending upon the pathogen. Downy Mildew of Grape (Plasmogara viticola-[…]) (96 Hour Protectant): Vines (cultivar Carignane) were grown from seed in a soilless peat-based potting mixture (Metromix) until the seedlings were 10-20 cm tall. These plants were then sprayed to run off with the test compound at a rate of 100 ppm. After 96 hours the test plants were inoculated by spraying with an aqueous sporangia suspension of Plasmopara viticola. The plants were then transferred to the greenhouse until disease developed on the untreated control plants. The following table presents the activity of typical compounds of the present invention when evaluated in these experiments. The effectiveness of the test compounds in controlling disease was rated using the following scale: […]

Septoria tritici = experiment: Septoria leaf spot (SEPTTR); settings: wheat (cultivar Monon), sprayed at 100 ppm, inoculated after 24 hours
Experimental: Compound Formulation: […] Final treatment volumes were obtained by adding nine volumes 0.05kOO aqueous Tween-20 or Triton X-100, depending upon the pathogen. Septoria leaf spot (Septoria tritici-[…]): Wheat (cultivar Monon) was grown from seed in a soilless peat-based potting mixture (Metromix) until the seedlings were 1-2 leaf (BECH 12). These plants were then sprayed to run off with the test compound at a rate of 100 ppm. After 24 hours the test plants were inoculated with an aqueous spore suspension of Septoria tritici. The plants were then transferred to the greenhouse until disease developed on the untreated control plants. The following table presents the activity of typical compounds of the present invention when evaluated in these experiments. The effectiveness of the test compounds in controlling disease was rated using the following scale: […]

Erysiphe graminis = experiment: Powdery Mildew of Wheat (ERYSGT); settings: wheat (cultivar Monon), inoculated, sprayed at 25 ppm after 48 hours
Experimental: Compound Formulation: […] Final treatment volumes were obtained by adding nine volumes 0.05kOO aqueous Tween-20 or Triton X-100, depending upon the pathogen. Powdery Mildew of Wheat (Erysiphe graminis-[…]): Wheat (cultivar Monon) was grown in a soilless peat-based potting mixture (Metromix) until the seedlings were 1-2 leaf (BBCH 12). These plants were then inoculated with Erysiphe graminis by dusting spores from stock plants onto the test plants. After 48 hours the plants were sprayed to run off with the test compound at a rate of 25 ppm and then kept in the greenhouse until disease developed on the untreated control plants. The following table presents the activity of typical compounds of the present invention when evaluated in these experiments. The effectiveness of the test compounds in controlling disease was rated using the following scale: […]

Compound | PLASVI control of plant disease (Plasmopara viticola) | SEPTTR control of plant disease (Septoria tritici) | ERYSGT control of plant disease (Erysiphe graminis)
CNC(=O)C(=NOC)c1ccccc1COc1cccc(OCCOC2CCC2)n1 [Compound 58] | ++ (++ = 75-100 % control of plant disease) | ++ (++ = 75-100 % control of plant disease) | –
CNC(=O)C(=NOC)c1ccccc1COc1cccc(SCc2ccc(OC)cc2)n1 [Compound 57] | – | ++ (++ = 75-100 % control of plant disease) | –
CNC(=O)C(=NOC)c1ccccc1COc1cccc(OCCOC2CCCCC2)n1 [Compound 62] | ++ (++ = 75-100 % control of plant disease) | + (+ = 25-74% control of plant disease) | –
CCCCCOCCOc1cccc(OCc2ccccc2C(=NOC)C(=O)NC)n1 [Compound 61] | ++ (++ = 75-100 % control of plant disease) | ++ (++ = 75-100 % control of plant disease) | –
CCCCCCOCCOc1cccc(OCc2ccccc2C(=NOC)C(=O)NC)n1 [Compound 70] | + (+ = 25-74% control of plant disease) | + (+ = 25-74% control of plant disease) | –
C=CC(COC)Oc1cccc(OCc2ccccc2C(=NOC)C(=O)NC)n1 (stereo not drawn) [Compound 72] | – | − (− = 0-24% control of plant disease) | –
CNC(=O)C(=NOC)c1cccc(Cl)c1COc1cccc(OCCCOC(C)C)n1 [Compound 80] | – | ++ (++ = 75-100 % control of plant disease) | –
CNC(=O)C(=NOC)c1ccccc1COc1cccc(OCc2ccc(OC)cc2)n1 [Compound 83] | – | ++ (++ = 75-100 % control of plant disease) | –
CCCCCOCCOc1cccc(OCc2c(F)cccc2C(=NOC)C(=O)NC)n1 [Compound 75] | – | ++ (++ = 75-100 % control of plant disease) | –
CNC(=O)C(=NOC)c1ccccc1COc1cccc(OCCCCCOCc2ccccc2)n1 [Compound 66] | ++ (++ = 75-100 % control of plant disease) | ++ (++ = 75-100 % control of plant disease) | –
CCOc1ccccc1Oc1cccc(OCc2ccccc2C(=NOC)C(=O)NC)n1 [Compound 64] | ++ (++ = 75-100 % control of plant disease) | ++ (++ = 75-100 % control of plant disease) | –
CCCCCOCCOc1cccc(OCc2c(Cl)cccc2C(=NOC)C(=O)NC)n1 [Compound 76] | – | ++ (++ = 75-100 % control of plant disease) | –
CCCCSCCOc1cccc(OCc2ccccc2C(=NOC)C(=O)NC)n1 [Compound 47] | ++ (++ = 75-100 % control of plant disease) | – | ++ (++ = 75-100 % control of plant disease)
CCOCCCOc1cccc(OCc2c(Cl)cccc2C(=NOC)C(=O)NC)n1 [Compound 78] | – | ++ (++ = 75-100 % control of plant disease) | –
CCCOCCOc1nc(OCc2ccccc2C(=NOC)C(=O)NC)c(Cl)cc1Cl [Compound 29] | ++ (++ = 75-100 % control of plant disease) | – | + (+ = 25-74% control of plant disease)
CNC(=O)C(=NOC)c1ccccc1COc1nc(OCc2ccco2)c(Cl)cc1Cl [Compound 4] | − (− = 0-24% control of plant disease) | – | − (− = 0-24% control of plant disease)
CCOCCCOc1cccc(OCc2c(F)cccc2C(=NOC)C(=O)NC)n1 [Compound 77] | – | ++ (++ = 75-100 % control of plant disease) | –
CNC(=O)C(=NOC)c1ccccc1COc1cccc(Sc2ccccc2OC)n1 [Compound 42] | ++ (++ = 75-100 % control of plant disease) | – | ++ (++ = 75-100 % control of plant disease)
CCCOC(C)COc1nc(OCc2ccccc2C(=NOC)C(=O)NC)c(Cl)cc1Cl (stereo not drawn) [Compound 26] | + (+ = 25-74% control of plant disease) | – | ++ (++ = 75-100 % control of plant disease)
CNC(=O)C(=NOC)c1ccccc1COc1cccc(OCCOCC2CO2)n1 (stereo not drawn) [Compound 74] | – | ++ (++ = 75-100 % control of plant disease) | –
CNC(=O)C(=NOC)c1ccccc1COc1nc(OCC(C)OC)c(Cl)cc1Cl (stereo not drawn) [Compound 28] | ++ (++ = 75-100 % control of plant disease) | – | ++ (++ = 75-100 % control of plant disease)

Compound | PLASVI control of plant disease (Plasmopara viticola) | SEPTTR control of plant disease (Septoria tritici) | ERYSGT control of plant disease (Erysiphe graminis)
CNC(=O)C(=NOC)c1ccccc1COc1cccc(OCC(C)OC)n1 (stereo not drawn) [Compound 30] | ++ (++ = 75-100 % control of plant disease) | – | ++ (++ = 75-100 % control of plant disease)
CCCCC(CC)COCCOc1cccc(OCc2ccccc2C(=NOC)C(=O)NC)n1 (stereo not drawn) [Compound 56] | ++ (++ = 75-100 % control of plant disease) | ++ (++ = 75-100 % control of plant disease) | –
CCOc1ccc(Sc2cccc(OCc3ccccc3C(=NOC)C(=O)NC)n2)cc1 [Compound 85] | – | − (− = 0-24% control of plant disease) | –
CCOc1ccc(Oc2cccc(OCc3ccccc3C(=NOC)C(=O)NC)n2)cc1 [Compound 68] | ++ (++ = 75-100 % control of plant disease) | + (+ = 25-74% control of plant disease) | –
CNC(=O)C(=NOC)c1ccccc1COc1cccc(OCCOC(CCC#N)OC)n1 (stereo not drawn) [Compound 73] | – | − (− = 0-24% control of plant disease) | –
CNC(=O)C(=NOC)c1ccccc1COc1cccc(OCCCOCCCOC)n1 [Compound 71] | – | − (− = 0-24% control of plant disease) | –
CNC(=O)C(=NOC)c1ccccc1COc1cccc(OCC2CCCCO2)n1 (stereo not drawn) [Compound 9] | ++ (++ = 75-100 % control of plant disease) | – | + (+ = 25-74% control of plant disease)
CCCCSCCOc1cccc(OCc2ccccc2C(=NOC)C(=O)NC)n1 [Compound 48] | + (+ = 25-74% control of plant disease) | – | − (− = 0-24% control of plant disease)
CNC(=O)C(=NOC)c1ccccc1COc1cccc(OCC2(C)COC2)n1 [Compound 7] | + (+ = 25-74% control of plant disease) | – | ++ (++ = 75-100 % control of plant disease)
CCCCOCCOc1cccc(OCc2ccccc2C(=NOC)C(=O)NC)n1 [Compound 46] | ++ (++ = 75-100 % control of plant disease) | – | + (+ = 25-74% control of plant disease)
CCOCCCCOc1cccc(OCc2ccccc2C(=NOC)C(=O)NC)n1 [Compound 65] | ++ (++ = 75-100 % control of plant disease) | ++ (++ = 75-100 % control of plant disease) | –
CNC(=O)C(=NOC)c1ccccc1COc1cccc(OCc2ccccc2OC)n1 [Compound 82] | – | ++ (++ = 75-100 % control of plant disease) | –
CNC(=O)C(=NOC)c1ccccc1COc1cccc(Oc2ccccc2OC)n1 [Compound 81] | – | + (+ = 25-74% control of plant disease) | –
CNC(=O)C(=NOC)c1ccccc1COc1cccc(OCC2CCCO2)n1 (stereo not drawn) [Compound 10] | + (+ = 25-74% control of plant disease) | – | ++ (++ = 75-100 % control of plant disease)
CNC(=O)C(=NOC)c1ccccc1COc1cccc(OCCOc2ccccc2)n1 [Compound 49] | ++ (++ = 75-100 % control of plant disease) | – | ++ (++ = 75-100 % control of plant disease)
CNC(=O)C(=NOC)c1ccccc1COc1cccc(Sc2ccc(SC)cc2)n1 [Compound 43] | ++ (++ = 75-100 % control of plant disease) | – | − (− = 0-24% control of plant disease)
CCCOCCOc1cccc(OCc2c(Cl)cccc2C(=NOC)C(=O)NC)n1 [Compound 60] | ++ (++ = 75-100 % control of plant disease) | ++ (++ = 75-100 % control of plant disease) | –
CNC(=O)C(=NOC)c1ccccc1COc1cccc(OCCOC)n1 [Compound 25] | ++ (++ = 75-100 % control of plant disease) | – | ++ (++ = 75-100 % control of plant disease)
CCSCCOc1cccc(OCc2ccccc2C(=NOC)C(=O)NC)n1 [Compound 45] | ++ (++ = 75-100 % control of plant disease) | – | + (+ = 25-74% control of plant disease)
CNC(=O)C(=NOC)c1ccccc1COc1cccc(Sc2cccs2)n1 [Compound 15] | ++ (++ = 75-100 % control of plant disease) | – | ++ (++ = 75-100 % control of plant disease)
CNC(=O)C(=NOC)c1cccc(F)c1COc1cccc(OCCCOC(C)C)n1 [Compound 79] | – | ++ (++ = 75-100 % control of plant disease) | –
